Key:
[1] = Acute toxicity study, single drench to mice (LD50, Bliss method); details: mouse, in vivo, oral, hydrochloride
From the text: Bliss method is used for statistics.

[2] = tested on: rat formalin induced pain model; experiment: Rat formalin induced pain model (leg-raising times); format: in vivo, SD rats; details: formalin 1 h later, Mean ± SD, n=10
From the text: Rat formalin induced pain model is used to test in vivo analgesic effect of hydrochloride of compound III-10.
Rat formalin induced pain model is established by Dubuisson and Dennis in 1977. It can simulate some characteristics of human pains after damages, and its persistent tension pain is similar to common clinical chronic pains. Its experimental results have excellent repeatability, and it is considered to be universally accepted pain model which is more reliable than short-term mechanical or thermal stimulation models. It has been generally used in investigation and determination of pain mechanism, pain physiology and pharmacology, screening of the analgesic effects of drugs and evaluation of analgesic drugs.
Test compounds are prepared to relevant doses with 0.5% CMC-Na before use.
Formaldehyde solution: batch number HN20041109, HuaDong reagent industrial company. In experiment, it is diluted to 5% formaldehyde solution with 0.9% sodium chloride injection.
90 SD rats of weight (240-350 g), half female and half male, are fed for I week to adapt the environment, with 5 in each cage during feeding, the rats are fed under standard condition during experiments with free access to water and food.
90 SD rats of weight 240-350 g are randomly divided into 9 groups which are negative control group, model group, gabapentin group, high, median and low dosage group of each compound respectively, with 10 rats in each group, half female and half male. Relevant test compounds are given by intragastric administration, and 5% formalin (50 ul) is subcutaneously injected at the left rear foot in 1 h to model, formation of pichu indicates a successful modeling. 0.5% (weight percentage) CMC-Na is given by intragastric administration in negative control group, and normal saline (50 ul) is subcutaneously injected at the bottom of right rear foot in 1 h. After modeling, the leg-raising times in 1-2 minutes and 5-6 minutes are observed. The time period 10-60 minutes are divided into 5 minutes intervals, and the leg-raising times of the first minute of each interval (10-11, 15-16, 20-21, 25-26, 30-31, 35-36, 40-41, 45-46, 50-51, 55-56, 60-61) are observed.
Measuring index is expressed as mean±standard deviation (Mean±SD), comparison is analyzed with One-way ANOVA.

5-HT1A receptor = target: T1, 5-HT1A receptor (Rattus norvegicus, UniProt P19327); experiment: In vitro competitive binding test to 5-HT1A receptor ([3H]-8-OH-DPAT, rat cerebral cortex membranes); details: 10 μmol/L compound; hydrochloride salts; rat cerebral cortex membrane; unit (I %); read-out: 5-HT1A affinity [3H]-8-OH-DPAT (inhibition rate of radioligand binding)
T1 construct: The supernatant is discarded and the precipitate (membrane receptor) is stocked; from tissue; host or cells: SD rat cerebral cortex membranes
T1 sequence (P19327 1-422): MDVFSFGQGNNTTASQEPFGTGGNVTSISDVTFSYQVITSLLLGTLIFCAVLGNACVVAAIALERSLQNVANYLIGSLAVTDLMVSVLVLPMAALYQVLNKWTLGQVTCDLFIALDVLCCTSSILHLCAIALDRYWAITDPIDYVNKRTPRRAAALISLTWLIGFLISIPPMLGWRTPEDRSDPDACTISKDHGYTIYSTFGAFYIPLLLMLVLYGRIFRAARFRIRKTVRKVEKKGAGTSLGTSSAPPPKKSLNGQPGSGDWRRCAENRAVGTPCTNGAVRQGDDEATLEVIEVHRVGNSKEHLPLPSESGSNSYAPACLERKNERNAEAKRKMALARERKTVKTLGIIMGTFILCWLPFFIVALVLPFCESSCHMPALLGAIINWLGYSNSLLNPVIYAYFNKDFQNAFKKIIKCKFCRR
Protocol: (§1) Animals: clean grade SD rats, female and male, 250-300 g, purchased from Nanjing QingLongshan animal breeding center.
(§2) Radioligand: [^3H]-8-OH-DPAT, [^3H]-Ketanserin, purchased from PerkinElmer company; 5-HT and Methysergide, purchased from Sigma company.
Preparation of 5-HT1A buffer solution: Tris-HCl buffer solution (0.05M, 1000 ml) is added with certain amount of ascorbic acid, pargyline and CaCl2, to give final concentrations of 0.1%(ascorbic acid), 10 um (pargyline) and 4 mM (CaCl2) separately.
(§3) Preparation of radioligand: 50 μl mother liquor is diluted to 5 ml with anhydrous ethanol, and stocked for use.
(§4) Preparation of non-labeling ligand: appropriate amounts of 5-HT and Methysergide are dissolved in ultrapure water to give solutions with final concentrations of 2*10^−5M respectively.
(§5) Preparation of solutions of various test drugs: appropriate amount of each drug is first diluted to 1 ml with ultrapure water as stock solution. When needed, 10 μl of the stock solution is diluted to 1 ml to reach a level of 10^−5M.
(§6) Rats are decapitated to get the brains. The target tissues (left and right cerebral cortex) are separated on ice, added with 10-fold volume (V/W) of ice-cold buffer, and homogenized with tissue Homogenizer for several seconds 3 times to form tissue homogenate. The tissue homogenate is centrifuged with low temperature superb centrifuge (12000 r/min) 3 times, with each for 20 minutes. The supernatant is discarded and the precipitate (membrane receptor) is stocked in −80° C. ultralow temperature freezer.
(§7) The membrane receptor is added with certain volume of ice-cold buffer and homogenized to make membrane receptor solutions at certain concentrations.
(§8) Various reaction solutions are added in the following sequences and ratios:
(§9) Total binding tube: 100 μl membrane receptor+100 μl buffer+10 μl radioligand
(§10) Non-specific tube: 100 μl membrane receptor+100 μl non-labeling ligand+10 μl radioligand
(§11) Test compound tube: 100 μl membrane receptor+100 μl drug solution+10 μl radioligand
(§12) Above tubes are put in 37° C. water bath immediately after finishing adding radioligand into each of them and then incubated for 25 min. After 25 min, the tubes are put in ice water to quench the reaction. Each tube is poured into suction filtration device to filter, and the filter membrane is washed with 5-10 ml ice-cold buffer twice. The filter membrane is dried in 85° C. oven, and then put into test tubes, and added with certain amount of scintillation liquid to soak overnight. Radioactivity is determined using liquid scintillation counter.
(§13) Each compound is tested in duplicate, and the tests are carried out independently twice.

5-HT2A receptor = target: T2, 5-HT2A receptor (Rattus norvegicus, UniProt P14842); experiment: In vitro competitive binding test to 5-HT2A receptor ([3H]-Ketanserin, rat cerebral cortex membranes); details: 10 μmol/L compound; hydrochloride salts; rat cerebral cortex membrane; unit (I %); read-out: 5-HT2A affinity [3H]-Ketanserin (inhibition rate of radioligand binding)
T2 construct: The supernatant is discarded and the precipitate (membrane receptor) is stocked; from tissue; host or cells: SD rat cerebral cortex membranes
Protocol: as §1, §2
Preparation of 5-HT2A buffer solution: Tris (6.05 g) is dissolved in ultrapure water (1000 ml). PH is adjusted to 7.4 with HCl. Tris-HCl buffer solution (0.05M) is used.
as §3, §4, §5, §6, §7, §8, §9, §10, §11, §12, §13

[3] = tested on: Salmonella typhimurium histidine auxotrophic mutants TA97, TA98, TA100 and TA102; experiment: Bacterial reverse mutation test (Ames test); details: −S9 and +S9, all dosages
Protocol: Strains: Salmonella typhimurium histidine auxotrophic mutants TA97, TA98, TA100 and TA102.
Results: the experiments include two parts of −S9 and +S9. In the test system without S9, TA98 5000 μg/dish has antibacterial activity, and in the test system with S9, TA97 5000 μg/dish has antibacterial activity. Other dosages have no antibacterial activity to any of the strains, and the growth background is excellent. […] Ames test is negative.

hSERT = hSERT (Homo sapiens, UniProt P31645); experiment: In vitro inhibition of serotonin reuptake ([3H]-5-HT) in cells stably expressing hSERT
hSERT, sequence (P31645 whole entry): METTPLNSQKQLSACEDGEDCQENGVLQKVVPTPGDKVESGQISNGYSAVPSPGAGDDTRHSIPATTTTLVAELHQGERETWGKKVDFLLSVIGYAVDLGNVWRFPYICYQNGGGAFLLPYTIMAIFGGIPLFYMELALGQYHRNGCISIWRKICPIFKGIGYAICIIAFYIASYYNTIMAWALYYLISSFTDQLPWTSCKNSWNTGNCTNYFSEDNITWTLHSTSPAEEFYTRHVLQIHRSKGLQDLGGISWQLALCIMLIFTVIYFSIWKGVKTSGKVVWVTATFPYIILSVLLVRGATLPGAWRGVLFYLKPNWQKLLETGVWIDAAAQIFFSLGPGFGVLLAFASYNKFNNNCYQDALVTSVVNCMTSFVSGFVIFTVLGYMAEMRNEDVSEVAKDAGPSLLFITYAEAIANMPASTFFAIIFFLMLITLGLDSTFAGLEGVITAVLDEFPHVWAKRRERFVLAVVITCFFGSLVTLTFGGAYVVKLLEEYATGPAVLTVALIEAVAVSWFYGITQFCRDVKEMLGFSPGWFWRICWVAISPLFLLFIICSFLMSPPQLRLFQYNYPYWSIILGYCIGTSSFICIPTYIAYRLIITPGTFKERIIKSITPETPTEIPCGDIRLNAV
Protocol: Positive control compound: fluoxetine.
Sample treatment: about 1 mg of compound is weighted and added with relative amount of DMSO to prepare 10^−2M stock solution. Before use, the stock solution is diluted with HBSS buffer to relative concentrations. Each sample is dissolved in DMSO completely. The dilution is clear and without obvious cloudy and formation of precipitate after adding with buffer.
(1) Cells which can stably express hSERT are seeded into 24-well plates respectively.
(2) Experiments are started when the cell confluence reaches 80-90%.
(3) Liquids in the plates are discarded, the plates are washed with PBS twice at room temperature.
(5) Plates are incubated at 37° C. for 10 min after slight oscillation.
(6) Then 20 μl radioisotope is added (cpm: about 20000).
(7) Plates are incubated at 37° C. for 5 min after slight oscillation.
(8) Liquids in the plates are discarded, the plates are washed with ice-cold PBS twice, all the liquids in the plates are removed away.
(9) NaOH (2M, 100 μl) is added into each well to lyse the cells. All the lysates are combined and put on GF/C glass fiber filter paper.
(10) The filter papers are dried and put in 0.5 ml centrifuge tube, 500 μl lipid soluble scintillation liquid are added. Radioactivity is determined by MicroBeta liquid scintillation counter. Each concentration is tested intriplicate, and tests are carried out independently twice.
Test concentration is 10 μmol/L. The positive drug provided is set as control (10 μmol/L) in each experiment. The experimental processes are the same as the above process.

T2 sequence (P14842 whole entry): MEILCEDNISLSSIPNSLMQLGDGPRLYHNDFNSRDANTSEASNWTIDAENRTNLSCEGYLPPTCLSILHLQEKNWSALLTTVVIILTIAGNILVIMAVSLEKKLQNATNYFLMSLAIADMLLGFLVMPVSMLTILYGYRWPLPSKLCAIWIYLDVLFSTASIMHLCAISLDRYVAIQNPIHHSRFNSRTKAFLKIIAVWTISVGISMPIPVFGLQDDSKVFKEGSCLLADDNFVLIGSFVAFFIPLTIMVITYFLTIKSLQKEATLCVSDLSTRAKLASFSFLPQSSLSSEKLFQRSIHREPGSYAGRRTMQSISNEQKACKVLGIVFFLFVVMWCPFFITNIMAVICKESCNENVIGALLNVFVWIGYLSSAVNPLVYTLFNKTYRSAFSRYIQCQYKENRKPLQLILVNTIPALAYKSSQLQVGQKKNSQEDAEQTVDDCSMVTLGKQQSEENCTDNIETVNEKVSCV

SMILES: CN(CCCN1CCN(c2cccc(Cl)c2)CC1)c1cccc(C#N)c1 [III-10, 3-((3-(4-(3-chlorophenyl)piperazin-1-yl)propyl)methylamino)benzonitrile]
- LD50 [1]: 1500 mg/kg
- phase I times (leg-raising times) ([2]; 40 mg/kg intragastric): 21.23 ± 11.24 time
- phase I times (leg-raising times) ([2]; 160 mg/kg intragastric): 21.90 ± 15.48 time
- inhibition at 10 µM (5-HT1A receptor): 109%
- inhibition at 10 µM (5-HT2A receptor): 145%
- Ames test (colony reverse mutations) [3]: negative
- IC50 (hSERT): 138 ± 35 nM
- inhibition effect to 5-HT reuptake compared with fluoxetine (hSERT): more potent than that of fluoxetine
- inhibition at 10 µM (hSERT; read-out: Inhibition rates of SERT reuptake [3H]-5-HT): 94.3%

Reference: patent publication US9238632B2, “3-cyanoanilinoalkylarylpiperazine derivative and use thereof in preparing drugs” (NHWA Pharma. Corporation, priority 2012, dated 2016)
